In article PMC6125784 (Cell chemical biology, 2018):

Target: T1, CobL (Rhodobacter capsulatus, UniProt D5AV04)
T1 sequence (D5AV04 1-396): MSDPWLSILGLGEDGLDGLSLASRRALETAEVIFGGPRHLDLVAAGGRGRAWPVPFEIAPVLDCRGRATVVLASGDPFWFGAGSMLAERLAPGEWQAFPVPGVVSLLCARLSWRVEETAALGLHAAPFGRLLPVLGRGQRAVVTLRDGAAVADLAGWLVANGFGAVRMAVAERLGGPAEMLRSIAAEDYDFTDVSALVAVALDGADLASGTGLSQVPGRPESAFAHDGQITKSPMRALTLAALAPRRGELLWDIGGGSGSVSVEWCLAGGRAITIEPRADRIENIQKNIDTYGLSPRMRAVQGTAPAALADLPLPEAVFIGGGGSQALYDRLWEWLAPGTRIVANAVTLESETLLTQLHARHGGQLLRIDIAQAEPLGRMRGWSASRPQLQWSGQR
Experiment: C5 alkylation coupled to CobH, UV-visible and HPLC-MS
Format: biochemical
Conditions: CobH 30 uM, pH 8.0, 28°C

| Compound | C5 alkylation coupled to CobH, UV-visible and HPLC-MS (precorrin-7 60 uM) | C5 alkylation coupled to CobH, UV-visible and HPLC-MS (allyl-SAM 170 uM) |
| --- | --- | --- |
| C=CC[S+](CC[C@H](N)C(=O)O)C[C@H]1O[C@@H](n2cnc3c(N)ncnc32)[C@H](O)[C@@H]1O (some centres unmarked) [allyl-SAM] | When precorrin-7 was incubated with CobL, CobH, and allyl-SAM the color | – |
| CC1=C(CCC(=O)O)C2=N[C@@]1(C)CC1=C(CCC(=O)O)[C@](C)(CC(=O)O)C(=N1)/C=C1\N[C@@](C)([C@@H]3N=C(C2C)[C@](C)(CCC(=O)O)[C@H]3CC(=O)O)[C@@](C)(CC(=O)O)[C@@H]1CCC(=O)O (some centres unmarked) [precorrin-7] | – | When precorrin-7 was incubated with CobL, CobH, and allyl-SAM the color |
